The values below come from the supplement of paper PMC11061612.

Test in all cases: Bliss excess, mean over the matrix (fraction); higher = more synergy
Test [1] has as its system BHT-101 (Thyroid Gland Carcinoma). The procedure, abridged:
(§1)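 Cell lines in DMEM/F12 or RPMI with 10% FBS were plated in 1536-well plates, held 24 hours at 37°C, 5% CO2, then given two-drug dose matrices for 72 hours (DMSO typically 0.2%). Viability was read by CellTiter-Glo 2.0 luminescence and scaled as inhibition from 0 (vehicle wells) to 1 (blank wells). Combination Emax is the second-highest inhibition in the matrix; Bliss excess is observed combination effect minus expected EA + EB − EA·EB, EA and EB being single-agent effects.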

Test [2] deals with C-33-A (Cervical Carcinoma). The procedure, abridged:
as §1

Test [3] has as its system CPC-N (Small Cell Lung Carcinoma). Summed up:
as §1

For another test, the system named is ES6 (Ewing's Sarcoma). Summed up: as §1
The test system of the next test is KALS-1 (Glioblastoma). The procedure, abridged:
as §1

Test [4] has as its system LS-1034 (Colorectal Carcinoma). Summed up: as §1
The subject of test [5] is MDA-MB-415 (Breast Carcinoma). Summed up: as §1
Test [6] relates to MM1S (Plasma Cell Myeloma). Summed up: as §1
Test [7] relates to MOLP-8 (Plasma Cell Myeloma). The procedure, abridged:
as §1

Test [8] has as its system MS-1 (Small Cell Lung Carcinoma). The procedure, abridged:
as §1

The test system of test [9] is NCI-H1876 (Small Cell Lung Carcinoma). Summed up:
as §1

Test [10] deals with NCI-H1963 (Small Cell Lung Carcinoma). The procedure, abridged:
as §1

The test system of test [11] is NCI-H3118 (Head and Neck Carcinoma). Summed up:
as §1

The test system of test [12] is OVCAR-3 (Ovarian Carcinoma). The procedure, abridged:
as §1

The subject of test [13] is PA-TU-8988T (Pancreatic Carcinoma). Summed up:
as §1

Test [14] relates to Raji (Burkitt's Lymphoma). The procedure, abridged:
as §1

For test [15], the system named is SNU-C2B (Colorectal Carcinoma). The procedure, abridged: as §1
Test [16] has as its system T84 (Colorectal Carcinoma). The procedure, abridged:
as §1

The test system of test [17] is TUR (Acute Myeloid Leukemia). The procedure, abridged:
as §1

A further test deals with UACC-257 (Melanoma). Summed up: as §1

Take `C[C@@H](c1ccc2nccn2c1)n1nnc2ncc(-c3cnn(C)c3)nc21` [Savolitinib] + Cc1c2c(nn1C)CSCc1cc(n(C)n1)CSc1cc(c3ccccc3c1)OCCCc1c(C(=O)O)n(C)c3c-2c(Cl)ccc13 [AZD5991] (first compound max 1 µM, 7x7, partner max 1 µM): the Bliss excess in test [1] is -0.0307; in test [2], -0.0084; in test [3] it was -0.0179; with ES6 (Ewing's Sarcoma) it was -0.0384; with KALS-1 (Glioblastoma) it was -0.0411; in test [4] it was -0.022. The Bliss excess in test [5] is -0.0462; in test [6] it was 0.021; in [7], -0.0219; in test [8], -0.0062; in test [9], 0.0044; in test [10], -0.0134. Also, the Bliss excess in test [11] was -0.0268; in [12] it was -0.0341; in test [13] it was -0.0205; in [14], -0.0383; in test [15] it was -0.0554; in test [16] it was -0.0652. Also, the Bliss excess in [17] is 0.0026; with UACC-257 (Melanoma) it was -0.0194.

Take `COc1cccc2c1C(=O)c1c(O)c3c(c(O)c1C2=O)C[C@@](O)(C(=O)CO)C[C@@H]3O[C@H]1C[C@H](N)[C@H](O)[C@H](C)O1` [Doxorubicin] + Cc1cc2ncnn2cc1Nc1ncc2c(n1)n(C1CCOCC1)c(=O)n2C [AZD7648] (first compound max 1 µM, 7x7, partner max 10 µM): the Bliss excess came to 0.0409 in test [1]; 0.0531 in test [2]; 0.105 in test [3]; 0.0672 in the test with ES6 (Ewing's Sarcoma); 0.0571 with KALS-1 (Glioblastoma); 0.0055 in test [4]. The Bliss excess in test [5] was -0.039; in [6], 0.0891; in test [7] it was 0.0396; in test [8] it was 0.0686; in test [9], 0.144; in test [10], 0.1. For the same molecule, the Bliss excess is 0.0731 in [11]; 0.0489 in test [12]; 0.0582 in test [13]; 0.0979 in [14]; 0.0518 in test [15]; -0.0081 in test [16]. The Bliss excess in [17] is 0.119; in the test with UACC-257 (Melanoma) it was -0.0059.

Consider `CC1(C)CCC(CN2CCN(c3ccc(C(=O)NS(=O)(=O)c4ccc(NCC5CCOCC5)c([N+](=O)[O-])c4)c(Oc4cnc5[nH]ccc5c4)c3)CC2)=C(c2ccc(Cl)cc2)C1` [Venetoclax] + C=CCn1c(=O)c2cnc(Nc3ccc(N4CCN(C)CC4)cc3)nc2n1-c1cccc(C(C)(C)O)n1 [AZD1775] (first compound max 1 µM, partner max 1 µM), for which the Bliss excess is -0.0626 in test [1]; 0.0262 in test [2]; 0.0439 in test [3]; 0.025 with ES6 (Ewing's Sarcoma); 0.0815 with KALS-1 (Glioblastoma); -0.043 in test [4]. The Bliss excess in [5] is -0.028; in test [6], -0.0281; in test [7], -0.0225; in [8], 0.0465; in test [9] it was -0.001; in test [10] it was 0.123. Moreover, the Bliss excess in test [11] was -0.0416; in test [12], -0.067; in test [13], -0.0286; in test [14] it was -0.023; in test [15] it was -0.009; in test [16], -0.0498. The Bliss excess was -0.0071 in test [17] and -0.0142 in the test on UACC-257 (Melanoma).

For `NC1(C(=O)N[C@@H](CCO)c2ccc(Cl)cc2)CCN(c2ncnc3[nH]ccc23)CC1` [Capivasertib] + Cn1cnc2c(F)c(Nc3ccc(Br)cc3Cl)c(C(=O)NOCCO)cc21 [Selumetinib] (first compound max 10 µM, 7x7, partner max 10 µM), the Bliss excess in test [1] is 0.081; in [2], 0.0513; in test [3], -0.0381; in the test on ES6 (Ewing's Sarcoma), -0.0397; in the test with KALS-1 (Glioblastoma) it was 0.0079; in test [4], -0.0123. For the same molecule, the Bliss excess was 0.0162 in [5]; 0.0712 in [6]; 0.121 in test [7]; -0.005 in [8]; 0.0122 in test [9]; 0.0023 in [10]. The Bliss excess is 0.091 in test [11]; -0.0223 in test [12]; 0.128 in [13]; 0.0036 in test [14]; -0.022 in [15]; -0.0598 in test [16]. The figures for the Bliss excess (in [17]; with UACC-257 (Melanoma)) were 0.0879 and -0.0402, respectively.

On to `Cc1c2c(nn1C)CSCc1cc(n(C)n1)CSc1cc(c3ccccc3c1)OCCCc1c(C(=O)O)n(C)c3c-2c(Cl)ccc13` [AZD5991] + C1CN(CCC1(C(=O)N[C@@H](CCO)C2=CC=C(C=C2)Cl)N)C3=NC=NC4=C3C=CN4 [Capivasertib] (first compound max 1 µM, 7x7, partner max 3 µM), for which the Bliss excess in test [1] was 0.0332; in test [2], 0.0063; in test [3] it was 0.0177; in the test with ES6 (Ewing's Sarcoma), -0.0055; with KALS-1 (Glioblastoma), 0.0491; in test [4], -0.0042. In addition, the Bliss excess in test [5] is 0.0144; in test [6], -0.0098; in [7] it was 0.0077; in test [8], 0.0265; in test [9] it was 0.0708; in [10] it was 0.0377. Besides, the Bliss excess in [11] is 0.0263; in [12], 0.0217; in test [13], -0.01; in test [14], 0.0312; in test [15] it was -0.0161; in test [16], -0.0185. The Bliss excess in test [17] amounted to 0.0937; in the test on UACC-257 (Melanoma), 0.0061.

On to `COc1cccc(OCCCN)c1-c1cc(Nc2cnc(C#N)cn2)n[nH]1` [Prexasertib] + C=CCn1c(=O)c2cnc(Nc3ccc(N4CCN(C)CC4)cc3)nc2n1-c1cccc(C(C)(C)O)n1 [AZD1775] (first compound max 1 µM, partner max 1 µM), for which the Bliss excess is 0.136 in test [1]; 0.0983 in test [2]; 0.0431 in [3]; 0.0362 with ES6 (Ewing's Sarcoma); -0.0436 in the test on KALS-1 (Glioblastoma); 0.0999 in test [4]. In addition, the Bliss excess in test [5] was found to be 0.0729; in test [6], 0.0356; in test [7], 0.0398; in test [8], 0.0972; in test [9] it was 0.0393; in [10], 0.068. The Bliss excess is 0.0483 in test [11]; 0.16 in test [12]; 0.227 in test [13]; 0.0907 in [14]; -0.0336 in test [15]; 0.144 in test [16]. In addition, the Bliss excess in [17] was found to be 0.105; with UACC-257 (Melanoma), 0.0714.

Take `NC1(C(=O)N[C@@H](CCO)c2ccc(Cl)cc2)CCN(c2ncnc3[nH]ccc23)CC1` [Capivasertib] + CCN(CCO)CCCOc1ccc2c(Nc3cc(CC(=O)Nc4cccc(F)c4)[nH]n3)ncnc2c1 [AZD2811] (first compound max 10 µM, 7x7, partner max 1 µM): the Bliss excess in test [1] was -0.0124; in [2], 0.0297; in [3] it was -0.0523; with ES6 (Ewing's Sarcoma) it was -0.0055; in the test on KALS-1 (Glioblastoma), 0.0318; in test [4] it was -0.0634. Moreover, the Bliss excess in [5] is 0.0001; in test [6] it was 0.0257; in test [7], 0.0345; in test [8] it was 0.0059; in test [9], 0.0781; in test [10] it was -0.023. The Bliss excess in test [11] was -0.0242; in test [12] it was 0.0224; in [13], 0.103; in [14] it was 0.0021; in test [15], -0.0032; in test [16] it was -0.104. Besides, the Bliss excess in [17] is 0.0286; in the test on UACC-257 (Melanoma), 0.0028.
